From patent US9309254B2, “Pyrimidinyl-diazospiro compounds” (CONVERGENCE PHARMACEUTICALS LIMITED, priority 2012, dated 2016)
Structures can show the parent of a compound that is named as a salt. Where two headings read alike, the source gives them in different places.

Molecular target: T1, hNaV1.7 (Homo sapiens, UniProt Q15858)
T1 construct: expressed in transfected cells; host or cells: HEK293
Assay: QPatch NaV1.7 assay
Format: cell-based
Settings: HEK293-hNaV1.7 cells, QPatch16x
Experimental: The compounds of the invention were tested in a QPatch NaV1.7 assay.
HEK293-hNaV1.7 cells were grown in DMEM-F12+10% FBS culture media at 37° C. At a confluency of 50-70% cells were dissociated from culture flasks & triturated to ensure unicellular cell suspension; cell density was measured & adjusted to 2-3×10^6 cells/ml. Recordings were obtained using QPatch16x. The external solution was (in mM): NaCl, 128; KCl, 5; MgCl2, 2; CaCl2, 2; Glucose, 30; HEPES, 15; pH 7.3, 305-315 mOsm. Following seal formation and whole-cell access using internal solution (containing in mM: CsF, 135; EGTA/CsOH, 1/5; HEPES 10; NaCl, 10; pH 7.3, 310-320mOsM), voltage pulse protocols were applied. Initially a steady state inactivation voltage protocol was used to determine the half-maximal voltage for steady state inactivation (V1/2 SSI). Two holding voltages were used to determine test drug inhibition: −90 mV, where most of the channels are in a closed state; and V1/2 SSI, where half of the channels are inactivated. Currents were elicited every 10 seconds by stepping to a membrane potential of 0 mV for 20 ms. Four-point cumulative concentration responses were derived by determining the peak current amplitude at each concentration of test drug over 120 second application. Curves were fitted with the Hill equation yielding pIC50 values at −90 mV and V1/2 SSI holding potentials.

[1] = holding voltage V1/2 SSI, where half of the channels are inactivated, read-out: QP Nav1.7 SSI vhalf pIC50 (converted)
[2] = holding voltage −90 mV, where most of the channels are in a closed state, read-out: QP Nav1.7 - 90 mV pIC50 (converted)

T1 sequence (Q15858 whole entry): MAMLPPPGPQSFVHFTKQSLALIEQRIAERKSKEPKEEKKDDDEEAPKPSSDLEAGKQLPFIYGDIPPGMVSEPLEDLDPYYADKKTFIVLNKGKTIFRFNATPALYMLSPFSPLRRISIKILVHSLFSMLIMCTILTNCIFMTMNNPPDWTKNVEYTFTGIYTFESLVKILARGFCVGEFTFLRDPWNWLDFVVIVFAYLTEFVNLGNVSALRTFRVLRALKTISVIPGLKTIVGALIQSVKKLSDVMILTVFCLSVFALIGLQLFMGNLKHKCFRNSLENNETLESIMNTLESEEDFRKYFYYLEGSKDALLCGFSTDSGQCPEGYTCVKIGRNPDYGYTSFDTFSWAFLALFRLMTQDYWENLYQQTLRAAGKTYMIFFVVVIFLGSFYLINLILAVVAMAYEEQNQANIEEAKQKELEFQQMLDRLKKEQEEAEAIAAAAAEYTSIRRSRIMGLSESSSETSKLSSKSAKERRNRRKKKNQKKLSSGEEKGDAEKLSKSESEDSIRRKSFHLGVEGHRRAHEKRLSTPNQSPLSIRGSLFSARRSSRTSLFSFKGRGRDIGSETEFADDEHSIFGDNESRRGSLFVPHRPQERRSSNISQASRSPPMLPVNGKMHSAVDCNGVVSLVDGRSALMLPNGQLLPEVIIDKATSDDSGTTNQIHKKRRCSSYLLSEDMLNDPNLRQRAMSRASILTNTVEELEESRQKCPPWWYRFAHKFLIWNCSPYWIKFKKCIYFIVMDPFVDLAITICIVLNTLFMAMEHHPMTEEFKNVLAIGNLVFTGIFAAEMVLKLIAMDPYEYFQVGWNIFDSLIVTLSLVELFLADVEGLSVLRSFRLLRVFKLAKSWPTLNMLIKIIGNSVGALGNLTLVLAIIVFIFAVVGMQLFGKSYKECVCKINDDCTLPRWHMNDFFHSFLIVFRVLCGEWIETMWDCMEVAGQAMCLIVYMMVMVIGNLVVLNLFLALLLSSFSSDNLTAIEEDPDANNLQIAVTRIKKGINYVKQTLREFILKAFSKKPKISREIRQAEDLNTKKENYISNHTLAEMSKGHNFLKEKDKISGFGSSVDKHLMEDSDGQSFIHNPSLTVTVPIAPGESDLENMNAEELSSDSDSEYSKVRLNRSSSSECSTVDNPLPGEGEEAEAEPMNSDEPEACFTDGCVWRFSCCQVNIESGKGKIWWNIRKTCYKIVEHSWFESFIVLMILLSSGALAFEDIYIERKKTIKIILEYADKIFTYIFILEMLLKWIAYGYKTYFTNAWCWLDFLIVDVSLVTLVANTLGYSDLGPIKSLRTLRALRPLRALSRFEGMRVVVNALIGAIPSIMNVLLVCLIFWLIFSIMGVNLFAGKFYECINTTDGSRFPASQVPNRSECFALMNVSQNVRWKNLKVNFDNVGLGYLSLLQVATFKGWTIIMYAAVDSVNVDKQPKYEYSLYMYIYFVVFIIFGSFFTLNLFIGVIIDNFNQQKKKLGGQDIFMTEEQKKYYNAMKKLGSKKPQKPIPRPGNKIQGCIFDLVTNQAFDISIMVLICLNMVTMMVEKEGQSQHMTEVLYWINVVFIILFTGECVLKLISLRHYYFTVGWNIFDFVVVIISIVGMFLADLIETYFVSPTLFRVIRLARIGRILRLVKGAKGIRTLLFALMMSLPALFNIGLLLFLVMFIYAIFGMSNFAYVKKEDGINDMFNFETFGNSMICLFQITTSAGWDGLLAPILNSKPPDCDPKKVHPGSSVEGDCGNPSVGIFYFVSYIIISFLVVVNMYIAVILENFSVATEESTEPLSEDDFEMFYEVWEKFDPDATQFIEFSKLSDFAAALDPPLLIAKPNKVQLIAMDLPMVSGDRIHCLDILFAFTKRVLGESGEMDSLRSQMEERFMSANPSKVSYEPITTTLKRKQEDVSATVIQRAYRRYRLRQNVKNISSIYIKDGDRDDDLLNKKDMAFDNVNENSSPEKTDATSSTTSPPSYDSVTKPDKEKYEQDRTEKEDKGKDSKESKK

Work on `Cc1cc(-c2ccc(C(F)(F)F)cc2)nc([C@H]2CC[C@]3(CC(C)(C)NC3=O)N2)n1` [Example 46, (2R,5R)-8,8-Dimethyl-2-[4-methyl-6-[4-(trifluoromethyl)phenyl]pyrimidin-2-yl]-1,7-diazaspiro[4.4]nonan-6-one hydrochloride] yielded an IC50 [1] of 3.16 µM and an IC50 [2] of 25.1 µM.
Work on `CC(C)Oc1ccc(-c2ccnc([C@H]3CC[C@]4(CCN(C)C4=O)N3)n2)cc1` [Example 23, (2R,5R)-2-[4-(4-Isopropoxyphenyl)pyrimidin-2-yl]-7-methyl-1,7-diazaspiro[4.4]nonan-6-one hydrochloride] yielded an IC50 [1] of 63.1 µM and an IC50 [2] of 1580 µM.
`CN1CC[C@@]2(CC[C@H](c3nccc(-c4ccc(C(F)(F)F)cc4)n3)N2)C1=O` [Example 1, (2R,5S)-7-Methyl-2-[4-[4-(trifluoromethyl)phenyl]pyrimidin-2-yl]-1,7-diazaspiro[4.4]nonan-6-one hydrochloride] was tested, and the IC50 [1] was 10 µM and the IC50 [2] was 126 µM.
For `CCOc1ccc(F)c(-c2ccnc([C@H]3CC[C@]4(CCN(C)C4=O)N3)n2)c1` [Example 14, (2R,5R)-2-[4-(5-Ethoxy-2-fluoro-phenyl)pyrimidin-2-yl]-7-methyl-1,7-diazaspiro[4.4]nonan-6-one hydrochloride], the IC50 [1] was 1.26 µM and the IC50 [2] was 20 µM.
`CC(C)Oc1ccc(-c2ccnc([C@@H]3CC[C@]4(CCN(C)C4=O)N3)n2)cc1` [Example 24, (2S,5R)-2-[4-(4-Isopropoxyphenyl)pyrimidin-2-yl]-7-methyl-1,7-diazaspiro[4.4]nonan-6-one hydrochloride] gave an IC50 [1] of 20 µM and an IC50 [2] of 158 µM.
Compound `CN1CC[C@@]2(CC[C@@H](c3nccc(-c4cccc(OC(F)(F)F)c4)n3)N2)C1=O` [Example 19, (2S,5S)-7-Methyl-2-[4-[3-(trifluoromethoxy)phenyl]pyrimidin-2-yl]-1,7-diazaspiro[4.4]nonan-6-one hydrochloride] has an IC50 [1] of 20 µM and an IC50 [2] of 200 µM.
`Cc1cc(-c2ccc(C(F)(F)F)cc2)nc([C@@H]2CC[C@]3(CCNC3=O)N2)n1` [Example 40, (2S,5R)-2-[4-Methyl-6-[4-(trifluoromethyl)phenyl]-pyrimidin-2-yl]-1,7-diazaspiro[4.4]nonan-6-one hydrochloride] gave an IC50 [1] of 31.6 µM and an IC50 [2] of 158 µM.
`CCOc1ccc(F)c(-c2cc(C)nc([C@@H]3CC[C@]4(CCCNC4=O)N3)n2)c1` [Example 13, hydrochloride] was tested, and the IC50 [1] was 1.58 µM and the IC50 [2] was 7.94 µM.
With `CCOc1ccc(F)c(-c2cc(C)nc([C@H]3CC[C@@]4(CCCNC4=O)N3)n2)c1` [Example 37, hydrochloride] the IC50 [1] was 1.58 µM and the IC50 [2] was 15.8 µM.
In the case of `Cc1cc(-c2cc(OC(F)(F)F)ccc2F)nc([C@H]2CC[C@]3(CCN(C)C3=O)N2)n1` [Example 33, (2R,5R)-2-[4-[2-Fluoro-5-(trifluoromethoxy)phenyl]-6-methyl-pyrimidin-2-yl]-7-methyl-1,7-diazaspiro[4.4]nonan-6-one hydrochloride], the IC50 [1] is reported as 2 µM and the IC50 [2] is reported as 20 µM.
In the case of `CC(C)Oc1ccc(-c2ccnc([C@H]3CC[C@@]4(CCN(C)C4=O)N3)n2)cc1` [Example 25, (2R,5S)-2-[4-(4-Isopropoxyphenyl)pyrimidin-2-yl]-7-methyl-1,7-diazaspiro[4.4]nonan-6-one hydrochloride], the IC50 [1] is reported as 7.94 µM and the IC50 [2] is reported as 50.1 µM.
`Cc1cc(-c2ccc(OC(F)(F)F)cc2)nc([C@H]2CC[C@@]3(CCN(C)C3=O)N2)n1` [Example 27, (2R,5S)-7-Methyl-2-[4-methyl-6-[4-(trifluoromethoxy)phenyl]pyrimidin-2-yl]-1,7-diazaspiro[4.4]nonan-6-one hydrochloride] was tested, and the IC50 [1] was 10 µM and the IC50 [2] was 63.1 µM.
Work on `CN1CC[C@]2(CC[C@@H](c3nccc(-c4ccc(C(F)(F)F)cc4)n3)N2)C1=O` [Example 3, (2S,5R)-7-Methyl-2-[4-[4-(trifluoromethyl)phenyl]pyrimidin-2-yl]-1,7-diazaspiro[4.4]nonan-6-one hydrochloride] yielded an IC50 [1] of 31.6 µM and an IC50 [2] of 158 µM.
In the case of `Cc1cc(-c2cc(OC(F)(F)F)ccc2F)nc([C@@H]2CC[C@@]3(CCN(C)C3=O)N2)n1` [Example 31, (2S,5S)-2-[4-[2-Fluoro-5-(trifluoromethoxy)phenyl]-6-methyl-pyrimidin-2-yl]-7-methyl-1,7-diazaspiro[4.4]nonan-6-one hydrochloride], the IC50 [1] is reported as 3.16 µM and the IC50 [2] is reported as 100 µM.
With `Cc1cc(-c2ccc(OC(F)(F)F)cc2)nc([C@H]2CC[C@]3(CCN(C)C3=O)N2)n1` [Example 30, (2R,5R)-7-Methyl-2-[4-methyl-6-[4-(trifluoromethoxy)phenyl]pyrimidin-2-yl]-1,7-diazaspiro[4.4]nonan-6-one hydrochloride] the IC50 [1] was 20 µM and the IC50 [2] was 316 µM.
`Cc1cc(-c2ccc(C(F)(F)F)cc2)nc([C@H]2CC[C@]3(CCN(C)C3=O)N2)n1` [Example 6, (2R,5R)-7-Methyl-2-[4-methyl-6-[4-(trifluoromethyl)phenyl]pyrimidin-2-yl]-1,7-diazaspiro[4.4]nonan-6-one hydrochloride] was tested, and the IC50 [1] was 79.4 µM and the IC50 [2] was 316 µM.
Compound `CCOc1ccc(F)c(-c2ccnc([C@@H]3CC[C@@]4(CCN(C)C4=O)N3)n2)c1` [Example 16, (2S,5S)-2-[4-(5-Ethoxy-2-fluoro-phenyl)pyrimidin-2-yl]-7-methyl-1,7-diazaspiro[4.4]nonan-6-one hydrochloride] has an IC50 [1] of 12.6 µM and an IC50 [2] of 126 µM.
With `Cc1cc(-c2ccc(C(F)(F)F)cc2)nc([C@H]2CC[C@@]3(CCN(C)C3=O)N2)n1.Cl` [Example 7, (2R,5S)-7-Methyl-2-[4-methyl-6-[4-(trifluoromethyl)-phenyl]pyrimidin-2-yl]-1,7-diazaspiro[4.4]nonan-6-one hydrochloride] the “QP Nav1.7 SSI vhalf pIC50” value (holding voltage V1/2 SSI, where half of the channels are inactivated) was 5.7 and the IC50 [2] was 126 µM.
Work on `Cc1cc(-c2cc(OC(F)(F)F)ccc2F)nc([C@@H]2CC[C@]3(CCN(C)C3=O)N2)n1` [Example 34, (2S,5R)-2-[4-[2-Fluoro-5-(trifluoromethoxy)phenyl]-6-methyl-pyrimidin-2-yl]-7-methyl-1,7-diazaspiro[4.4]nonan-6-one hydrochloride] yielded an IC50 [1] of 7.94 µM and an IC50 [2] of 79.4 µM.
In the case of `CN1CC[C@]2(CC[C@H](c3nccc(-c4cccc(OC(F)(F)F)c4)n3)N2)C1=O` [Example 21, (2R,5R)-7-Methyl-2-[4-[3-(trifluoromethoxy)phenyl]pyrimidin-2-yl]-1,7-diazaspiro[4.4]nonan-6-one hydrochloride], the IC50 [1] is reported as 15.8 µM and the IC50 [2] is reported as 200 µM.
Compound `CCOc1ccc(F)c(-c2cc(C)nc([C@@H]3CC[C@]4(CCN(C)C4=O)N3)n2)c1` [Example 8, (2S,5R)-2-[4-(5-Ethoxy-2-fluoro-phenyl)-6-methyl-pyrimidin-2-yl]-7-methyl-1,7-diazaspiro[4.4]nonan-6-one hydrochloride] has an IC50 [1] of 2.51 µM and an IC50 [2] of 39.8 µM.
In the case of `CC(C)Oc1ccc(-c2ccnc([C@@H]3CC[C@@]4(CCN(C)C4=O)N3)n2)cc1` [Example 26, (2S,5S)-2-[4-(4-Isopropoxyphenyl)pyrimidin-2-yl]-7-methyl-1,7-diazaspiro[4.4]nonan-6-one hydrochloride], the IC50 [1] is reported as 50.1 µM and the IC50 [2] is reported as 631 µM.
`Cc1cc(-c2cc(OC(F)(F)F)ccc2F)nc([C@H]2CC[C@@]3(CCN(C)C3=O)N2)n1` [Example 32, (2R,5S)-2-[4-[2-Fluoro-5-(trifluoromethoxy)phenyl]-6-methyl-pyrimidin-2-yl]-7-methyl-1,7-diazaspiro[4.4]nonan-6-one hydrochloride] was tested, and the IC50 [1] was 2.51 µM and the IC50 [2] was 39.8 µM.
Work on `CCOc1ccc(F)c(-c2ccnc([C@H]3CC[C@@]4(CCN(C)C4=O)N3)n2)c1` [Example 17, (2R,5S)-2-[4-(5-Ethoxy-2-fluoro-phenyl)pyrimidin-2-yl]-7-methyl-1,7-diazaspiro[4.4]nonan-6-one hydrochloride] yielded an IC50 [1] of 10 µM and an IC50 [2] of 63.1 µM.
`Cc1cc(-c2ccc(C(F)(F)F)cc2)nc([C@H]2CC[C@@]3(CC(C)(C)NC3=O)N2)n1` [Example 43, (2R,5S)-8,8-Dimethyl-2-[4-methyl-6-[4-(trifluoromethyl)phenyl]pyrimidin-2-yl]-1,7-diazaspiro[4.4]nonan-6-one hydrochloride] showed an IC50 [1] of 5.01 µM and an IC50 [2] of 31.6 µM.
In the case of `CN1CC[C@@]2(CC[C@H](c3nccc(-c4cccc(OC(F)(F)F)c4)n3)N2)C1=O` [Example 18, (2R,5S)-7-Methyl-2-[4-[3-(trifluoromethoxy)phenyl]pyrimidin-2-yl]-1,7-diazaspiro[4.4]nonan-6-one hydrochloride], the IC50 [1] is reported as 12.6 µM and the IC50 [2] is reported as 126 µM.
For `CCOc1ccc(F)c(-c2cc(C)nc([C@@H]3CC[C@@]4(CCN(C)C4=O)N3)n2)c1` [Example 11, (2S,5S)-2-[4-(5-Ethoxy-2-fluoro-phenyl)-6-methyl-pyrimidin-2-yl]-7-methyl-1,7-diazaspiro[4.4]nonan-6-one hydrochloride], the IC50 [1] was 3.98 µM and the IC50 [2] was 79.4 µM.
